Source: paper PMC5439695 (PLoS ONE, 2017)
Several values for one entry are separate records, joined by “and”; a condition that tells them apart may be missing. Equal entries are not always repeated. Where two headings read alike, the source gives them in different places.

Experiments:
[1] = tested on: HEK293 and HepG2 cell lines
[2] = tested on: HepG2 cells; conditions: for IC50: HepG2, glo, n=136
[3] = tested on: HEK293 cells; conditions: for EC50: HEK293, flor, mean and SD, n=136; as to hek293 flor emax 0: unit not given here
[4] = tested on: HEK293 cells; conditions: for IC50: HEK293, glo, mean and SD, n=136; as to hek293 flor emax 0: unit not given here
[5] = tested on: HepG2 cells; test: CellTox Green Cytotoxicity Assay (flor) in HepG2, HepG2[flor]; type: cell-based, human; conditions: for EC50: HepG2, flor, n=136, read-out: EC50;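 as to hepg2 flor emax 0: percent activity versus DMSO-only wells with baseline rescaled to 0%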;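 as to hepg2 flor emax 40: percent activity versus DMSO-only wells with baseline rescaled to 0%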
[6] = POD potency, max over real-time cytotoxicity assays
[7] = POD potency, median over real-time cytotoxicity assays
[8] = HEK293[glo], HEK293[flor], HepG2[glo], HepG2[flor]

Cl.Cl.Nc1ccc(-c2ccc(N)c(Cl)c2)cc1Cl [3,3'-Dichlorobenzidine dihydrochloride]
Cyto(realtime)_max [1, 6]: 5.37 log10(M)*-1
Cyto(realtime)_median [1, 7]: 4.59 log10(M)*-1

N=C1NC(=N)c2cc3ccccc3cc21 [1,3-Diiminobenz(f)isoindoline]
Cyto(realtime)_max [1, 6]: 4.75 log10(M)*-1
Cyto(realtime)_median [1, 7]: 4.40 log10(M)*-1

O=C(O)c1ccccc1O.Oc1cccc2cccnc12 [8-Quinolinol Salicylic acid (1:1)]
information [1]: 0
hepg2_glo_auc ([2]; HepG2 glo): 0
hepg2_glo_time ([2]; HepG2 glo): 48
hepg2_glo_bin ([2]; HepG2 glo, kinetics bin): inactive
hepg2_glo_emax_0 ([2]; HepG2 glo, time point 0): 0
hepg2_glo_pod_0 ([2]; HepG2 glo, time point 0): -4.417
hepg2_glo_wauc_0 ([2]; HepG2 glo, time point 0): 0
hepg2_glo_emax_8 ([2]; HepG2 glo, time point 8): 0
hepg2_glo_pod_8 ([2]; HepG2 glo, time point 8): -4.417
hepg2_glo_wauc_8 ([2]; HepG2 glo, time point 8): 0
hepg2_glo_emax_16 ([2]; HepG2 glo, time point 16): 0
hepg2_glo_pod_16 ([2]; HepG2 glo, time point 16): -4.417
hepg2_glo_wauc_16 ([2]; HepG2 glo, time point 16): 0
hepg2_glo_emax_24 ([2]; HepG2 glo, time point 24): 0
hepg2_glo_pod_24 ([2]; HepG2 glo, time point 24): -4.417
hepg2_glo_wauc_24 ([2]; HepG2 glo, time point 24): 0
hepg2_glo_emax_32 ([2]; HepG2 glo, time point 32): 0
hepg2_glo_pod_32 ([2]; HepG2 glo, time point 32): -4.417
hepg2_glo_wauc_32 ([2]; HepG2 glo, time point 32): 0
hepg2_glo_emax_40 ([2]; HepG2 glo, time point 40): 0
hepg2_glo_pod_40 ([2]; HepG2 glo, time point 40): -4.417
hepg2_glo_wauc_40 ([2]; HepG2 glo, time point 40): 0
hek293_flor_auc ([3]; HEK293 flor): 0
hek293_flor_time ([3]; HEK293 flor): 48
hek293_flor_bin ([3]; HEK293 flor, kinetics bin): inactive
hek293_flor_emax_0 ([3]; HEK293 flor, time point 0): 0
hek293_flor_pod_0 ([3]; HEK293 flor, time point 0): -4.417
hek293_flor_wauc_0 ([3]; HEK293 flor, time point 0): 0
hek293_flor_emax_8 ([3]; HEK293 flor, time point 8): 0
hek293_flor_pod_8 ([3]; HEK293 flor, time point 8): -4.417
hek293_flor_wauc_8 ([3]; HEK293 flor, time point 8): 0
hek293_flor_emax_16 ([3]; HEK293 flor, time point 16): 0
hek293_flor_pod_16 ([3]; HEK293 flor, time point 16): -4.417
hek293_flor_wauc_16 ([3]; HEK293 flor, time point 16): 0
hek293_flor_emax_24 ([3]; HEK293 flor, time point 24): 0
hek293_flor_pod_24 ([3]; HEK293 flor, time point 24): -4.417
hek293_flor_wauc_24 ([3]; HEK293 flor, time point 24): 0
hek293_flor_emax_32 ([3]; HEK293 flor, time point 32): 0
hek293_flor_pod_32 ([3]; HEK293 flor, time point 32): -4.417
hek293_flor_wauc_32 ([3]; HEK293 flor, time point 32): 0
hek293_flor_emax_40 ([3]; HEK293 flor, time point 40): 0
hek293_flor_pod_40 ([3]; HEK293 flor, time point 40): -4.417
hek293_flor_wauc_40 ([3]; HEK293 flor, time point 40): 0
hek293_glo_auc ([4]; HEK293 glo): 0
hek293_glo_time ([4]; HEK293 glo): 48
hek293_glo_bin ([4]; HEK293 glo, kinetics bin): inactive
hek293_glo_emax_0 ([4]; HEK293 glo, time point 0): 0
hek293_glo_pod_0 ([4]; HEK293 glo, time point 0): -4.417
hek293_glo_wauc_0 ([4]; HEK293 glo, time point 0): 0
hek293_glo_emax_8 ([4]; HEK293 glo, time point 8): 0
hek293_glo_pod_8 ([4]; HEK293 glo, time point 8): -4.417
hek293_glo_wauc_8 ([4]; HEK293 glo, time point 8): 0
hek293_glo_emax_16 ([4]; HEK293 glo, time point 16): 0
hek293_glo_pod_16 ([4]; HEK293 glo, time point 16): -4.417
hek293_glo_wauc_16 ([4]; HEK293 glo, time point 16): 0
hek293_glo_emax_24 ([4]; HEK293 glo, time point 24): 0
hek293_glo_pod_24 ([4]; HEK293 glo, time point 24): -4.417
hek293_glo_wauc_24 ([4]; HEK293 glo, time point 24): 0
hek293_glo_emax_32 ([4]; HEK293 glo, time point 32): 0
hek293_glo_pod_32 ([4]; HEK293 glo, time point 32): -4.417
hek293_glo_wauc_32 ([4]; HEK293 glo, time point 32): 0
hek293_glo_emax_40 ([4]; HEK293 glo, time point 40): 0
hek293_glo_pod_40 ([4]; HEK293 glo, time point 40): -4.417
hek293_glo_wauc_40 ([4]; HEK293 glo, time point 40): 0
hepg2_flor_auc ([5]; HepG2 flor): 0
hepg2_flor_time ([5]; HepG2 flor): 48
hepg2_flor_bin ([5]; HepG2 flor, kinetics bin): inactive
hepg2_flor_emax_0 ([5]; HepG2 flor, time point 0): 0
hepg2_flor_pod_0 ([5]; HepG2 flor, time point 0): -4.417
hepg2_flor_wauc_0 ([5]; HepG2 flor, time point 0): 0
hepg2_flor_emax_8 ([5]; HepG2 flor, time point 8): 0
hepg2_flor_pod_8 ([5]; HepG2 flor, time point 8): -4.417
hepg2_flor_wauc_8 ([5]; HepG2 flor, time point 8): 0
hepg2_flor_emax_16 ([5]; HepG2 flor, time point 16): 0
hepg2_flor_pod_16 ([5]; HepG2 flor, time point 16): -4.417
hepg2_flor_wauc_16 ([5]; HepG2 flor, time point 16): 0
hepg2_flor_emax_24 ([5]; HepG2 flor, time point 24): 0
hepg2_flor_pod_24 ([5]; HepG2 flor, time point 24): -4.417
hepg2_flor_wauc_24 ([5]; HepG2 flor, time point 24): 0
hepg2_flor_emax_32 ([5]; HepG2 flor, time point 32): 0
hepg2_flor_pod_32 ([5]; HepG2 flor, time point 32): -4.417
hepg2_flor_wauc_32 ([5]; HepG2 flor, time point 32): 0
hepg2_flor_emax_40 ([5]; HepG2 flor, time point 40): 0
hepg2_flor_pod_40 ([5]; HepG2 flor, time point 40): -4.417
hepg2_flor_wauc_40 ([5]; HepG2 flor, time point 40): 0

CC=O [Acetaldehyde]
Cyto(realtime)_max [1, 6]: 6.67 log10(M)*-1
Cyto(realtime)_median [1, 7]: 4.54 log10(M)*-1

CCCC[n+]1ccc(C)cc1.[Cl-] [1-Butyl-4-methylpyridinium chloride]
Cyto(realtime)_max [1, 6]: 5.01 log10(M)*-1
Cyto(realtime)_median [1, 7]: 4.39 log10(M)*-1

CCCCCCCCCCCCCCCCn1cc[n+](C)c1.F[B-](F)(F)F
Cyto(realtime)_max [1, 6]: 6.28 log10(M)*-1
Cyto(realtime)_median [1, 7]: 4.62 log10(M)*-1

CC/C(=C(\c1ccc(O)cc1)c1ccc(OCCN(C)C)cc1)c1ccccc1 [(Z)-4-Hydroxytamoxifen]
Cyto(realtime)_max [1, 6]: 4.89 log10(M)*-1
Cyto(realtime)_median [1, 7]: 4.45 log10(M)*-1

Bis(tributyltin)oxide
Cyto(realtime)_max [1]: 7.21 log10(M)*-1
Cyto(realtime)_median [1]: 6.40 log10(M)*-1

CCCCCCCCCCCCCCCC[N+](C)(C)C.[Cl-]
Cyto(realtime)_max [1, 6]: 5.58 log10(M)*-1
Cyto(realtime)_median [1, 7]: 4.79 log10(M)*-1

1-Ethyl-3-methylimidazolium diethylphosphate
Cyto(realtime)_max [1]: 6.32 log10(M)*-1
Cyto(realtime)_median [1]: 4.65 log10(M)*-1

CCCCCCCCCCCCn1cc[n+](C)c1.F[B-](F)(F)F
Cyto(realtime)_max [1, 6]: 6.57 log10(M)*-1
Cyto(realtime)_median [1, 7]: 4.55 log10(M)*-1

C=C(c1ccc(C(=O)O)cc1)c1cc2c(cc1C)C(C)(C)CCC2(C)C [Bexarotene]
Cyto(realtime)_max [1]: 4.68 log10(M)*-1
Cyto(realtime)_median [1]: 4.23 log10(M)*-1

C=CC1(C)OC(=O)N(c2cc(Cl)cc(Cl)c2)C1=O (stereo not shown) [vinclozolin, reference compound]
cytotoxicity kinetics activity profile in the four real-time cytotoxicity assays [1]: no activity in all four real-time cytotoxicity assays

CO[C@@]12[C@H](COC(N)=O)C3=C(C(=O)C(C)=C(N)C3=O)N1C[C@@H]1N[C@@H]12 [mitomycin C, reference compound]
activity in the assay (cytotoxic effect) [2]: active

CCCCCCCCCCCCn1cc[n+](C)c1.[Cl-] [1-Dodecyl-3-methylimidazolium chloride]
Cyto(realtime)_max [1, 6]: 7.06 log10(M)*-1
Cyto(realtime)_median [1, 7]: 4.44 log10(M)*-1

CCCCCCCCCCCCCC[P+](CCCCCC)(CCCCCC)CCCCCC.N#C[N-]C#N
Cyto(realtime)_max [1, 6]: 5.83 log10(M)*-1
Cyto(realtime)_median [1, 7]: 4.81 log10(M)*-1

Triethyltin bromide
Cyto(realtime)_max [1]: 6.72 log10(M)*-1
Cyto(realtime)_median [1]: 5.42 log10(M)*-1

ClC(Cl)=C(c1ccc(Cl)cc1)c1ccc(Cl)cc1 [p,p'-DDE, reference compound]
cytotoxicity kinetics activity profile in the four real-time cytotoxicity assays [1, 8]: quickly reach the maximum cytotoxic effect in at least three assays

C[C@]12CC[C@@H]3c4ccc(O)cc4C[C@@H](CCCCCCCCC[S+]([O-])CCCC(F)(F)C(F)(F)F)[C@H]3[C@@H]1CC[C@@H]2O (stereo partly shown) [fulvestrant, reference compound]
cytotoxicity kinetics activity profile in the four real-time cytotoxicity assays ([1]; human): solely active, HEK293[glo]

CCCCCCCCCCCCn1cc[n+](C)c1.O=S(=O)([O-])C(F)(F)F
Cyto(realtime)_max [1, 6]: 6.68 log10(M)*-1
Cyto(realtime)_median [1, 7]: 4.57 log10(M)*-1

OCC(c1ccc(Cl)cc1)c1ccc(Cl)cc1 [2,2-Bis(4-chlorophenyl)ethanol]
Cyto(realtime)_max [1, 6]: 4.70 log10(M)*-1
Cyto(realtime)_median [1, 7]: 4.57 log10(M)*-1

CCCCCCCCCCCCCC[N+](C)(C)C.[Cl-]
Cyto(realtime)_max [1, 6]: 5.94 log10(M)*-1
Cyto(realtime)_median [1, 7]: 4.88 log10(M)*-1

C.I. Solvent Black 5
Cyto(realtime)_max [1, 6]: 5.68 log10(M)*-1
Cyto(realtime)_median [1, 7]: 4.42 log10(M)*-1

CCCCC(CC)COC(=O)c1ccc(O)cc1 (stereo not shown) [2-Ethylhexylparaben]
Cyto(realtime)_max [1, 6]: 4.68 log10(M)*-1
Cyto(realtime)_median [1, 7]: 4.25 log10(M)*-1

CCCCCCCCCCCCCC[P+](CCCC)(CCCC)CCCC.CCCCCCCCCCCCc1ccc(S(=O)(=O)[O-])cc1
Cyto(realtime)_max [1, 6]: 6.97 log10(M)*-1
Cyto(realtime)_median [1, 7]: 5.03 log10(M)*-1

CC(C)(C)CC(C)(C)c1ccc(O)cc1 [4-(1,1,3,3-tetramethylbutyl)phenol, reference compound]
cytotoxicity kinetics activity profile in the four real-time cytotoxicity assays [1, 8]: quickly reach the maximum cytotoxic effect in at least three assays

CCCCCCCC[N+](CCCCCCCC)(CCCCCCCC)CCCCCCCC [tetra-N-octylammonium bromide, reference compound]
IC50 ([2]; 8 hrs): 7.9 ± 1.62 µM
IC50 ([2]; 16 hrs): 7.53 ± 1.44 µM
IC50 ([2]; 24 hrs): 7.79 ± 1.54 µM
IC50 ([2]; 32 hrs): 8.05 ± 1.68 µM
IC50 ([2]; 40 hrs): 8.18 ± 1.91 µM
EC50 ([3]; 8 hrs): 9.88 ± 2.1 µM
EC50 ([3]; 16 hrs): 8.01 ± 1.52 µM
EC50 ([3]; 24 hrs): 6.06 ± 1.11 µM
EC50 ([3]; 32 hrs): 6.8 µM and 6.73 µM
EC50 ([3]; 40 hrs): 7.69 ± 1.76 µM
IC50 ([4]; 8 hrs): 5.91 ± 1.26 µM
IC50 ([4]; 16 hrs): 2.53 ± 0.74 µM
IC50 ([4]; 24 hrs): 1.34 ± 0.52 µM
IC50 ([4]; 32 hrs): 0.87 ± 0.44 µM
IC50 ([4]; 40 hrs): 0.79 ± 0.32 µM
EC50 ([5]; 8 hrs): 7.59 ± 1.48 µM
EC50 ([5]; 16 hrs): 6.18 ± 1.27 µM
EC50 ([5]; 24 hrs): 5.87 ± 1.1 µM
EC50 ([5]; 32 hrs): 6.43 ± 1 µM
EC50 ([5]; 40 hrs): 6.4 ± 0.96 µM

CCCCCCCCCCCCCC[n+]1ccn(C)c1.[Cl-]
Cyto(realtime)_max [1, 6]: 6.67 log10(M)*-1
Cyto(realtime)_median [1, 7]: 4.69 log10(M)*-1

O=[N+]([O-])C1(Br)COCOC1 [5-Bromo-5-nitro-1,3-dioxane]
Cyto(realtime)_max [1, 6]: 4.72 log10(M)*-1
Cyto(realtime)_median [1, 7]: 4.41 log10(M)*-1
